39 compounds from patent publication US6245817A, “NPY5 receptor antagonists and methods for using same” (Bayer Corporation, priority 1999, dated 2001) can be followed below.

What is called IC50 is the concentration at which inhibition is half-maximal. A word on the inhibition: it is the relative decrease from the control value, in per cent.

The first assay addresses T1, Human NPY5 Receptor (Homo sapiens, UniProt Q15761).
T1 sequence (Q15761 1-445): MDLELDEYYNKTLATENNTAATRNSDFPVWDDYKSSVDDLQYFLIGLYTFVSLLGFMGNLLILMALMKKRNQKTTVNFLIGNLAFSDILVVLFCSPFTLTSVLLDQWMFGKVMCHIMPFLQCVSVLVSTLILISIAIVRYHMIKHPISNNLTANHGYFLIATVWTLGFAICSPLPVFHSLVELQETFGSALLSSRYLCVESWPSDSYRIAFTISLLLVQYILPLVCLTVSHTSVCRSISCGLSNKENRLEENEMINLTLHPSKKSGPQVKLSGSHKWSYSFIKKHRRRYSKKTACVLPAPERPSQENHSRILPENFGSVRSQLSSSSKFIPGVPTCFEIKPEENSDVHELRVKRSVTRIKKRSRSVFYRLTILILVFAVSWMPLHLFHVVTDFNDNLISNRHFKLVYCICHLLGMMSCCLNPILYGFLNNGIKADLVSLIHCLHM
As to the kind of experiment: Human NPY5 Receptor Binding Assay. The note with it: [125I]PYY; read-out: hNPY5 IC50.
For the compound `Nc1ccccc1SCC(=O)Nc1ccc(C2CCCCC2)cc1` [Compound 97, 2-(2-Amino-phenylsulfanyl)-N-(4-cyclohexyl-phenyl)-acetamide], the IC50 turned out to be 110 nM.
On to `Cc1ccnc(SCC(=O)Nc2ccc(C3CCCCC3)cc2)n1` [Compound 29], for which the half-maximal inhibitory concentration (IC50) turned out to be 190 nM.
Same read-out and setting: the result for `Nc1cccc(SCC(=O)Nc2ccc(C3CCCCC3)cc2)c1` [Compound 98, 2-(3-Amino-phenylsulfanyl)-N-(4-cyclohexyl-phenyl)-acetamide] reads 320 nM; that for `Cc1nnc(SCC(=O)Nc2ccc(C(=O)c3ccccc3)cc2)s1` [Compound 86, N-(4-Benzoyl-phenyl)-2-(5-methyl-[1,3,4]thiadiazol-2-ylsulfanyl)-acetamide], 170 nM; that for `Nc1ccc(SCC(=O)Nc2ccc(C3CCCCC3)cc2)cc1` [Compound 99, 2-(4-Amino-phenylsulfanyl)-N-(4-cyclohexyl-phenyl)-acetamide], 690 nM.
Same read-out and setting: the result for `O=C(CSc1nccc(C(F)(F)F)n1)Nc1ccc(C2CCCCC2)cc1` [Compound 75, N-(4-Cyclohexyl-phenyl)-2-(4-trifluoromethylpyrimidin-2-ylsulfanyl)-acetamide] reads > 1000 nM; that for `Cc1cc(C)nc(SCC(=O)Nc2ccc(C3CCCCC3)cc2)n1` [Compound 80, N-(4-Cyclohexyl-phenyl)-2-(4,6-dimethyl-pyrimidin-2-ylsulfanyl)-acetamide], > 1000 nM; that for `Cc1nc(SCC(=O)Nc2ccc(C3CCCCC3)cc2)n[nH]1` [Compound 73, N-(4-Cyclohexyl-phenyl)-2-(5-methyl-1H-[1,2,4]triazol-3-ylsulfanyl)-acetamide], > 1000 nM.
On the same count and under the same terms, the same measure for `O=C(CSc1ncnc2ccccc12)Nc1ccc(C2CCCCC2)cc1` [Compound 74, N-(4-Cyclohexyl-phenyl)-2-(quinazolin-4-ylsulfanyl)-acetamide]: > 1000 nM.
On to `CCOc1ccc2nc(SCC(=O)Nc3ccc(C4CCCCC4)cc3)sc2c1` [Compound 77, N-(4-Cyclohexyl-phenyl)-2-(6-ethoxy-benzothiazol-2-ylsulfanyl)-acetamide], for which the IC50 is > 1000 nM.
Same read-out and setting: the result for `O=C(CSc1nc2cc(Cl)ccc2s1)Nc1ccc(C2CCCCC2)cc1` [Compound 79] reads > 1000 nM; that for `Nc1nc(SCC(=O)Nc2ccc(C3CCCCC3)cc2)nc(O)c1N=O` [Compound 78, 2-(4-Amino-6-hydroxy-5-nitroso-pyrimidin-2-ylsulfanyl)-N-(4-Cyclohexyl-phenyl)-acetamide], > 1000 nM; that for `Nc1cc(N)nc(SCC(=O)Nc2ccc(C3CCCCC3)cc2)n1` [Compound 76, N-(4-Cycyclohexyl-phenyl)-2-(4,6-diamino-pyrimidin-2-ylsulfanyl)-cetamide], > 1000 nM.

A further assay has as its target T2, Rat NPY5 Receptor (Rattus norvegicus, UniProt Q63634).
T2 sequence (Q63634 1-445): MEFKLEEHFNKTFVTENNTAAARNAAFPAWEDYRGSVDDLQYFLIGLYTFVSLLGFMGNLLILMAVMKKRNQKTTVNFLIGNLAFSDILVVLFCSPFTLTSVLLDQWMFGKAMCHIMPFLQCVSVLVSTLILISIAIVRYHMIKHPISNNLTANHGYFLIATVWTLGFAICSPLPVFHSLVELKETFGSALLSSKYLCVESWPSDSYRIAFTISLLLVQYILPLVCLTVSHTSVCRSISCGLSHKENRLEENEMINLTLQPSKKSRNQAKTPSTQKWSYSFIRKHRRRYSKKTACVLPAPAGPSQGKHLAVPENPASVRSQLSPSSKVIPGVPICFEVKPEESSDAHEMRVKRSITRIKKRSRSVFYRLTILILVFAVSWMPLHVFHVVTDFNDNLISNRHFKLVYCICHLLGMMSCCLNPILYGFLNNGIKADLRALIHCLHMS
As to the kind of experiment: Rat NPY5 Receptor Binding Assay. The settings on record: 10 μM, values marked *; read-out: rNPY5 percent inhibition at 10 μM.
`O=C(CSc1ncc[nH]1)Nc1ccc(C(=O)c2ccccc2)cc1` [Compound 10, N-(4-Benzoyl-phenyl)-2-(1H-imidazol-2-ylsulfanyl)-acetamide]: the inhibition at 10 µM worked out at 97%.

Still in this assay, the particulars now being: [125I]PYY; read-out: rNPY5 IC50.
Regarding `O=C(CSc1ccc2ccccc2n1)Nc1ccc(C(=O)c2ccccc2)cc1` [Compound 100, N-(4-Benzoyl-phenyl)-2-(quinolin-2-ylsulanyl)-acetamide], the IC50 was > 1000 nM.
On to `Nc1ccccc1SCC(=O)Nc1ccc(C2CCCCC2)cc1` [Compound 97, 2-(2-Amino-phenylsulfanyl)-N-(4-cyclohexyl-phenyl)-acetamide], for which the IC50 stood at 90 nM.
For the compound `Cn1nnnc1SCC(=O)Nc1nc2ccccc2s1` [Compound 128, N-Benzothiazol-2-yl-2-(1-methyl-1H-tetrazol-5-ylsulfanyl)-acetamide], the IC50 was > 1000 nM.
With `Nc1cccc(SCC(=O)Nc2ccc(C3CCCCC3)cc2)c1` [Compound 98, 2-(3-Amino-phenylsulfanyl)-N-(4-cyclohexyl-phenyl)-acetamide], the concentration for half-maximal inhibition (IC50) stood at 290 nM.
The same measure, in the same setting: the same measure for `O=C(COc1ccccc1)Nc1ccc(C(=O)c2ccccc2)cc1` [Compound 134, N-(4-Benzoyl-phenyl)-2-phenoxy-acetamide]: > 1000 nM.
The same measure, in the same setting: the result for `Cc1nnc(SCC(=O)Nc2ccc(C(=O)c3ccccc3)cc2)s1` [Compound 86, N-(4-Benzoyl-phenyl)-2-(5-methyl-[1,3,4]thiadiazol-2-ylsulfanyl)-acetamide] reads 150 nM; that for `Nc1ccc(SCC(=O)Nc2ccc(C3CCCCC3)cc2)cc1` [Compound 99, 2-(4-Amino-phenylsulfanyl)-N-(4-cyclohexyl-phenyl)-acetamide], 510 nM; that for `Nc1nc(S)nc(SCC(=O)Nc2ccc(C(=O)c3ccccc3)cc2)n1` [Compound 105, 2-(4-Amino-mercapto-[1,3,5]triazin-2-ylsulfanyl)-N-(4-benzoyl-phenyl)-acetamide], > 1000 nM.
On the same count and under the same terms, the result for `Cn1nnnc1SCC(=O)NCCc1cccs1` [Compound 126, 2-(1-Methyl-1H-tetrazol-5-ylsulfanyl)-N-(2-thiophen-2-yl-ethyl)-acetamide] reads > 1000 nM.
`Cn1nnnc1SCC(=O)Nc1cccc2c1Cc1ccccc1-2` [Compound 131, N-(9H-Fluoren-1-yl)-2-(1-methyl-1H-tetrazol-5-ylsulfanyl)-acetamide]: the IC50 is > 1000 nM.
For the compound `CSc1sc(-c2nnc(SCC(=O)Nc3ccc(C4CCCCC4)cc3)n2C)c2c1C=CCC2` [Compound 112, N-(4-Cyclohexyl-phenyl)-2-[4-methyl-5-(3-methylsulfanyl-6,7-dihydro-benzo[C]thiophen-1-yl)-4H-[1,2,4]triazol-3-ylsulfanyl]-acetamide], the IC50 is > 1000 nM.
In the case of `COc1cccc(SCC(=O)Nc2ccc(C(=O)c3ccccc3)cc2)c1` [Compound 106, N-(4-Benzoyl-phenyl)-2-(3-methoxy-phenylsulfanyl)-acetamide], the IC50 is > 1000 nM.
On the same count and under the same terms, the result for `O=C(CSc1ccc2ccccc2n1)Nc1ccc(C2CCCCC2)cc1` [Compound 95, N-(4-Cyclohexyl-phenyl)-2-(quinolin-2-ylsulfanyl)-acetamide] reads > 1000 nM; that for `O=C(CSc1ncnc2ccccc12)Nc1ccc(C(=O)c2ccccc2)cc1` [Compound 82, N-(4-Benzoyl-phenyl)-2-(quinazolin-4-ylsulfanyl)-acetamide], > 1000 nM.
For `O=C(CSc1ccnc2cc(C(F)(F)F)ccc12)Nc1ccc(C2CCCCC2)cc1` [Compound 93, N-(4-Cyclohexyl-phenyl)-2-(7-trifluoromethyl-quinolin-4-ylsulfanyl)-acetamide], the IC50 was > 1000 nM.
The same measure, in the same setting: the same measure for `CSc1ccc(SCC(=O)Nc2ccc(C(=O)c3ccccc3)cc2)cc1` [Compound 108, N-(4-Benzoyl-phenyl)-2-(4-methylsulfanyl-phenylsulfanyl)-acetamide]: > 1000 nM; for `Cc1nc(SCC(=O)Nc2ccc(C(=O)c3ccccc3)cc2)n[nH]1` [Compound 81, N-(4-Benzoyl-phenyl)-2-(5-methyl-1H-[1,2,4]triazol-3-ylsulfanyl)-acetamide]: > 1000 nM.
The same measure, in the same setting: the result for `Cc1cc(C)c(CSCC(=O)Nc2ccc(C(=O)c3ccccc3)cc2)c(C)c1` [Compound 107, N-(4-Benzoyl-phenyl)-2-(2,4,6-trimethyl-benzylsulfanyl)-acetamide] reads > 1000 nM; that for `Nc1cc(N)nc(SCC(=O)Nc2ccc(C(=O)c3ccccc3)cc2)n1` [Compound 84, N-(4-Benzoyl-phenyl)-2-(4,6-diamino-pyrimidin 2-ylsulfanyl)-acetamide], > 1000 nM.
On the same count and under the same terms, the result for `O=C(CSc1nnc(CSCCOc2ccc(Cl)cc2Cl)o1)Nc1ccc(C2CCCCC2)cc1` [Compound 117] reads > 1000 nM; that for `Nc1ccc(SCC(=O)Nc2ccc(C(=O)c3ccccc3)cc2)cc1` [Compound 103, 2-(4-Amino-phenylsulfanyl)-N-(4-benzoyl-phenyl)-acetamide], > 1000 nM.
For `CN1CCC(OCC(=O)Nc2ccc(C3CCCCC3)cc2)CC1` [Compound 135, N-(4-Cyclohexyl-phenyl)-2-(1-methy-piperidin-4-yloxy)-acetamide], the IC50 was > 1000 nM.
On the same count and under the same terms, the result for `Cc1cnc(SCC(=O)Nc2ccc(C(=O)c3ccccc3)cc2)nc1S` [Compound 104, N-(4-Benzoyl-phenyl)-2-(4-mercapt-5-methyl-pyrimidin-2-ylsulfanyl)-acetamide] reads > 1000 nM; that for `O=C(COc1ccccc1)Nc1ccc(C2CCCCC2)cc1` [Compound 132, N-(4-Cyclohexyl-phenyl)-2-phenoxy-acetamide], > 1000 nM; that for `COc1ccc(-c2nnc(SCC(=O)Nc3ccc(C4CCCCC4)cc3)n2-c2cccc(C(F)(F)F)c2)cc1` [Compound 113, N-(4-Cyclohexyl-phenyl)-2-[5-(4-methoxy-phenyl)-4-(3-trifluoromethyl-phenyl)-4-[1,2,4]triazol-3-ylsulfanyl]-acetamide], > 1000 nM.
Consider `Cn1nnnc1SCC(=O)N1CCCCCC1` [Compound 129, 1-Azepan-1-yl-2-(1-methyl-1H-tetrazol-5-ylsulfanyl)-ethanone], for which the IC50 was > 1000 nM.
The same measure, in the same setting: the result for `O=C(CSc1ccnc2cc(C(F)(F)F)ccc12)Nc1ccc(C(=O)c2ccccc2)cc1` [Compound 88, N-(4-Benzoyl-phenyl)-2-(7-trifluoromethyl-quinolin-4-ylsulfanyl)-acetamide] reads > 1000 nM; that for `CN1CCC(OCC(=O)Nc2ccc(C(=O)c3ccccc3)cc2)CC1` [Compound 133, N-(4-Benzoyl-phenyl)-2-(1-methyl-piperidin-4-yloxy)-acetamide], > 1000 nM.
For the compound `O=C(CSc1n[nH]c(-c2ccco2)n1)Nc1ccc(C(=O)c2ccccc2)cc1` [Compound 118], the IC50 is > 1000 nM.
